# From patent US12551451B2, “Compositions and methods for delivering molecules” (SunVax mRNA Therapeutics Inc., priority 2023, dated 2026)
# Assay: LNP Characteristics (size, PDI, encapsulation efficiency) of LNPs formulated with novel ionizable lipids
# Assay type: physicochemical
# Conditions: LNP formulated with the ionizable lipid, DOPE, Cholesterol, DMG-PEG2000
# Method: LNPs formulated using the novel ionizable lipids of the disclosure or control ionizable lipids MC3 and SM-102 were synthesized by mixing the lipid components of the LNP in ethanol at a predetermined molar ratio (ionizable lipid/DOPE/Cholesterol/DMG-PEG2000=30/15/50/1.5) to prepare an organic phase. Sa-mRNA encoding firefly luciferase (LUC) or green fluorescent protein (GFP) was diluted in 50 mM citrate buffer (pH 4.5, Fisher) to prepare an aqueous phase. The sa-mRNA was stored at −80° C. and was thawed on ice prior to use. The ethanol and aqueous phases were mixed at a 1:3 ratio by pipette with the N/P=4.2/1. The resultant LNPs were purified by ultrafiltration (100,000 cut-off, MilliporeSigma™ Amicon™ Ultra-15 Centrifugal Filter Units) at 4° C. prior to transfection into a cell, such as a T-cell.
# LNPs formulated using novel ionizable lipids of the disclosure were synthesized using the procedure described in Example 2 and characterized. Table 4 below show the properties of each LNP formulated using a novel ionizable lipid of the disclosure.
Structure (SMILES),Avg. Encapsulation Efficiency (EE) %,Avg. PDI,Avg. Size
"CCCCCCCCCCCCCCCCCC(=O)N(C(CCCCCCC)CCCCCCC)C(CC1CCN(C)CC1)C(=O)NC1CCCCC1 (stereo not drawn) [Lipid P30C7, N-(1-(cyclohexylamino)-3-(1-methylpiperidin-4-yl)-1-oxopropan-2-yl)-N-(pentadecan-8-yl)stearamide]",93.9%,0.11,166.8 nm
"CCCCCCCCCCC(=O)N(CC(CCCCCCCC)CCCCCCCCCC)C(CC1CCN(C)CC1)C(=O)NC1CCCCCC1 (stereo not drawn) [Lipid P40B10, N-(1-(cycloheptylamino)-3-(1-methylpiperidin-4-yl)-1-oxopropan-2-yl)-N-(2-octyldodecyl)undecanamide]",95.8%,0.14,189.9 nm
"CCCCCCCCCCCCCC(=O)N(C(CCCCCCCC)CCCCCCCC)C(CC1CCN(C)CC1)C(=O)NC1CCCCCC1 (stereo not drawn) [Lipid P38D8, N-(1-(cycloheptylamino)-3-(1-methylpiperidin-4-yl)-1-oxopropan-2-yl)-N-(heptadecan-9-yl)tetradecanamide]",95.4%,0.18,186.9 nm
CCCCCCCCCCCCCC(=O)N(CC(CCCCCCCC)CCCCCCCCCC)C(C(=O)NC1CCCCC1)C1CCN(CC)CC1 (stereo not drawn) [Lipid P28D10],95.5%,0.10,188.0 nm
"CCCCCCCCCCCC(=O)N(CC(CCCCCCCC)CCCCCCCCCC)C(CC1CCN(C)CC1)C(=O)NC1CCCCCC1 (stereo not drawn) [Lipid P40C10, N-(1-(cycloheptylamino)-3-(1-methylpiperidin-4-yl)-1-oxopropan-2-yl)-N-(2-octyldodecyl)dodecanamide]",99.1%,0.25,192.9 nm
"CCCCCCCCCCCCCCCC(=O)N(C(CCCCCCC)CCCCCCC)C(C(=O)NC12CC3CC(CC(C3)C1)C2)C1CCN(CC)CC1 (stereo not drawn) [Lipid P56A1, N-(2-(((1s,3s)-adamantan-1-yl)amino)-1-(1-ethylpiperidin-4-yl)-2-oxoethyl)-N-(pentadecan-8-yl)palmitamide]",89.1%,0.12,186.3 nm
"CCCCCCCCCCCCC(=O)N(CC(CCCCCCCCCC)CCCCCCCCCCCC)C(CC1CCN(C)CC1)C(=O)NC(C)(C)C (stereo not drawn) [Lipid P51C12, N-(1-(tert-butylamino)-3-(1-methylpiperidin-4-yl)-1-oxopropan-2-yl)-N-(2-decyltetradecyl)tridecanamide]",98.1%,0.26,186.5 nm
"CCCCCCCCCCCCC(CCCCCCCCCC)CN(C(=O)CCCCCCCCC)C(C(=O)NC(C)(C)C)C1CCN(CC)CC1 (stereo not drawn) [Lipid P53A6, N-(2-(tert-butylamino)-1-(1-ethylpiperidin-4-yl)-2-oxoethyl)-N-(2-decyltetradecyl)decanamide]",98.3%,0.16,175.6 nm
"CCCCCCCCCCCCCCCC(=O)N(C(CCCCCCC)CCCCCCC)C(C(=O)NC1CCCCC1)C1CCN(CC)CC1 (stereo not drawn) [Lipid P30A1, N-(2-(cyclohexylamino)-1-(1-ethylpiperidin-4-yl)-2-oxoethyl)-N-(pentadecan-8-yl)palmitamide]",97.8%,0.11,176.6 nm
"CCCCCCCCCCCCCC(=O)N(C(CCCCCCC)CCCCCCC)C(C(=O)NC1CCCCCC1)C1CCN(CC)CC1 (stereo not drawn) [Lipid P38D1, N-(2-(cycloheptylamino)-1-(1-ethylpiperidin-4-yl)-2-oxoethyl)-N-(pentadecan-8-yl)tetradecanamide]",97.4%,0.12,179.1 nm
"CCCCCCCCCCCCCCCC(=O)N(C(CCCCCCCC)CCCCCCCC)C(C(=O)NC1=CCCCC1)C1CCN(CC)CC1 (stereo not drawn) [Lipid P6A2, N-(2-(cyclohex-1-en-1-ylamino)-1-(1-ethylpiperidin-4-yl)-2-oxoethyl)-N-(heptadecan-9-yl)palmitamide]",90.4%,0.12,190.7 nm
"CCCCCCCCCCCCCC(=O)N(C(CCCCCCC)CCCCCCC)C(CC1CCN(C)CC1)C(=O)NC1CCCCCC1 (stereo not drawn) [Lipid P38D7, N-(1-(cycloheptylamino)-3-(1-methylpiperidin-4-yl)-1-oxopropan-2-yl)-N-(pentadecan-8-yl)tetradecanamide]",94.8%,0.21,236.3 nm
"CCCCCCCCCCCCC(CCCCCCCCCC)CN(C(=O)CCCCCCCCCC)C(C(=O)NC12CC3CC(CC(C3)C1)C2)C1CCN(CC)CC1 (stereo not drawn) [Lipid P54B6, N-(2-(((1s,3s)-adamantan-1-yl)amino)-1-(1-ethylpiperidin-4-yl)-2-oxoethyl)-N-(2-decyltetradecyl)undecanamide]",93.4%,0.10,181.2 nm
"CCCCCCCCCCCC(CCCCCCCCCCC)N(C(=O)CCCCCCCCC)C(C(=O)NC(C)(C)C)C1CCN(CC)CC1 (stereo not drawn) [Lipid P53A5, N-(2-(tert-butylamino)-1-(1-ethylpiperidin-4-yl)-2-oxoethyl)-N-(tricosan-12-yl)decanamide]",97.9%,0.10,173.8 nm

# More lines, now with the values ahead:
Avg. Encapsulation Efficiency (EE) %,Avg. PDI,Avg. Size,Structure (SMILES)
92.9%,0.10,219 nm,"CCCCCCCC/C=C\CCCCCCCC(=O)N(C(CCCCCCC)CCCCCCC)C(C(=O)NC1CCCCCC1)C1CCN(CC)CC1 (stereo not drawn) [Lipid P149A1, N-(2-(cycloheptylamino)-1-(1-ethylpiperidin-4-yl)-2-oxoethyl)-N-(pentadecan-8-yl)oleamide]"
90.6%,0.10,173.2 nm,"CCCCCCCCCCCCCCCCC(=O)N(C(CCCCCCC)CCCCCCC)C(C(=O)NC12CC3CC(CC(C3)C1)C2)C1CCN(CC)CC1 (stereo not drawn) [Lipid P56B1, N-(2-(((1s,3s)-adamantan-1-yl)amino)-1-(1-ethylpiperidin-4-yl)-2-oxoethyl)-N-(pentadecan-8-yl)heptadecanamide]"
95.8%,0.13,174 nm,"CCCCCCCCCCCCOC(=O)CCC(=O)N(CC(CCCCCCCC)CCCCCCCCCC)C(C(=O)NC1CCCCCC1)C1CCCN(CC)C1 (stereo not drawn) [Lipid P159C10, dodecyl 4-((2-(cycloheptylamino)-1-(1-ethylpiperidin-3-yl)-2-oxoethyl)(2-octyldodecyl)amino)-4-oxobutanoate]"
81.5%,0.15,154.4 nm,"CCCCCCCCCCCCCCCC(=O)N(C(CCCCCCCC)CCCCCCCC)C(C(=O)NC12CC3CC(CC(C3)C1)C2)C1CCN(CC)CC1 (stereo not drawn) [Lipid P56A2, N-(2-(((1s,3s)-adamantan-1-yl)amino)-1-(1-ethylpiperidin-4-yl)-2-oxoethyl)-N-(heptadecan-9-yl)palmitamide]"
92.0%,0.10,218 nm,"CCCCCCCC/C=C\CCCCCCCC(=O)N(C(CCCCCCCC)CCCCCCCC)C(C(=O)NC1CCCCCC1)C1CCN(CC)CC1 (stereo not drawn) [Lipid P149A2, N-(2-(cycloheptylamino)-1-(1-ethylpiperidin-4-yl)-2-oxoethyl)-N-(heptadecan-9-yl)oleamide]"
86.8%,0.07,86.8 nm,"CCCCCCCCCCCCOC(=O)CCC(=O)N(C(CCCCCCCCC)CCCCCCCCC)C(C(=O)NC1CCCCCC1)C1CCN(CC)CC1 (stereo not drawn) [Lipid P153C3, dodecyl 4-((2-(cycloheptylamino)-1-(1-ethylpiperidin-4-yl)-2-oxoethyl)(nonadecan-10-yl)amino)-4-oxobutanoate]"
90.1%,0.15,176 nm,"CCCCCC/C=C\CCCCCCCC(=O)N(C(CCCCCCCC)CCCCCCCC)C(C(=O)NC1CCCCCC1)C1CCN(CC)CC1 (stereo not drawn) [Lipid P149C2, (Z)-N-(2-(cycloheptylamino)-1-(1-ethylpiperidin-4-yl)-2-oxoethyl)-N-(heptadecan-9-yl)hexadec-9-enamide]"
62.0%,0.14,169 nm,"CCCCCCCCCCCCOC(=O)CCC(=O)N(C(CCCCCCCCCCC)CCCCCCCCCCC)C(C(=O)NC1CCCCCC1)C1CCN(CC)CC1 (stereo not drawn) [Lipid P153C5, dodecyl 4-((2-(cycloheptylamino)-1-(1-ethylpiperidin-4-yl)-2-oxoethyl)(tricosan-12-yl)amino)-4-oxobutanoate]"
